Here are results for 1 compound from patent US10034836B2, “Formulations of guanylate cyclase C agonists and methods of use” (SYNERGY PHARMACEUTICALS, INC., priority 2008, dated 2018).

Where a SMILES comes first, the peptide text is derived from it. Bridges are numbered along the chain shown (N, C = ends).

The format of series [1] is in vitro ADME. As to conditions: pH 2. On the procedure:
FIG. 1A: Biological activity of SP-304 incubated for varying lengths of time in simulated gastric fluid (SGF). The biological activity of SP-304 was determined by measuring its ability to stimulate cGMP synthesis in T84 cells. Samples incubated for 0, 15, 30, 60, 90 and 120 minutes, respectively, were collected and analyzed for biological activity—with activity of the 0 min sample defined as 100% biological activity. The activities of the other samples are shown as percentage activity relative to the 0 min activity sample. Data points shown are the average of triplicate measurements±SD.
The stability of SP-304 in the presence of simulated gastric fluid (SGF) was determined by biological activity measurements and HPLC analyses (FIGS. 1A & 1B). SP-304 (final concentration of 8.5 mg/ml) was incubated in SGF (Proteose peptone (8.3 g/liter; Difco), D-Glucose (3.5 g/liter; Sigma), NaCl (2.05 g/liter; Sigma), KH2PO4 (0.6 g/liter; Sigma), CaCl2 (0.11 g/liter), KCl (0.37 g/liter; Sigma), Porcine bile (final 1× concentration 0.05 g/liter; Sigma) in PBS, Lysozyme (final 1× concentration 0.10 g/liter; Sigma) in PBS, Pepsin (final 1× concentration 0.0133 g/liter; Sigma) in PBS). SGF was made on the day of the experiment and the pH was adjusted to 2.0±0.1 using HCl or NaOH as necessary. After the pH adjustment, SGF is filter sterilized with 0.22 μm membrane filters. […]

Series [2] is classed as in vitro ADME. On the procedure:
FIG. 1B: Schematic representation of HPLC chromatographic analyses of SP-304 samples after incubation with SGF for 0 and 120 min, respectively. The arrows show the elution position of SP-304.
The stability of SP-304 in the presence of simulated gastric fluid (SGF) was determined by biological activity measurements and HPLC analyses (FIGS. 1A & 1B). SP-304 (final concentration of 8.5 mg/ml) was incubated in SGF (Proteose peptone (8.3 g/liter; Difco), D-Glucose (3.5 g/liter; Sigma), NaCl (2.05 g/liter; Sigma), KH2PO4 (0.6 g/liter; Sigma), CaCl2 (0.11 g/liter), KCl (0.37 g/liter; Sigma), Porcine bile (final 1× concentration 0.05 g/liter; Sigma) in PBS, Lysozyme (final 1× concentration 0.10 g/liter; Sigma) in PBS, Pepsin (final 1× concentration 0.0133 g/liter; Sigma) in PBS). SGF was made on the day of the experiment and the pH was adjusted to 2.0±0.1 using HCl or NaOH as necessary. After the pH adjustment, SGF is filter sterilized with 0.22 μm membrane filters. SP-304 (final concentration of 8.5 mg/ml) was incubated in SGF at 37° C. for 0, 15, 30, […] and 120 min, respectively, in triplicate aliquots. Following incubations, samples were snap frozen in dry ice then stored in a −80° C. freezer until assayed in duplicate.
Here, aliquots of the two samples were analyzed by HPLC using a previously developed method for analyzing SP-304 peptide. […]

Series [3] can be described thus: Stability in simulated intestinal fluid (SIF), HPLC analysis. It is filed as in vitro ADME. On the procedure:
FIG. 2B: HPLC chromatographic spectra of SP-304 samples after incubation with: (A) heat-inactivated SIF for 300 minutes, or (B) SIF for 120 minutes. The arrows show the elution position of SP-304.
FIGS. 7D-1-7D-2: HPLC chromatograms of SP-304 incubated for 0 min in SIF (FIG. 7D-1) and 60 min in SIF (FIG. 7D-2), respectively. The arrows indicate the elution positions of the parent SP-304 peptides. […] These new peptide peaks represent degradation products of SP-304.
FIGS. 7E-1-7-E2: HPLC chromatograms of SP-332 incubated for 0 min in SIF (FIG. 7E-1) and 120 min in SIF (FIG. 7E-2), respectively. The arrows indicate the elution positions of the parent SP-332 peptides.
FIGS. 7F-1-7F-2: HPLC chromatograms of SP-333 incubated for 0 min in SIF (FIG. 7F-1) and 120 min in SIF (FIG. 7F-2), respectively. The arrows indicate the elution positions of the parent SP-333 peptides.
FIGS. 7G-1-7G-5: Incubation of SP-333 with SIF for 2, 6, 12 and 24 hrs. Effect of SIF digestion on the activity of SP-333 in T84 stimulation assay was determined (FIG. 7G-1) and samples were also analyzed by HPLC (FIGS. 7G2-5). The elution positions of the parent peptide and its metabolites are indicated by arrows.
The physical stability of SP-304 peptide exposed to SIF was evaluated by HPLC using the method described for SGF digestion. […]

Series [4] deals with healthy male and female subjects. Put plainly: Phase 1 single ascending oral dose study, safety and tolerability. As to conditions: healthy volunteers.

On to `CC(C)C[C@H](NC(=O)[C@@H]1CSSC[C@@H]2NC(=O)[C@H](CC(C)C)NC(=O)[C@H](CCC(=O)O)NC(=O)[C@@H](NC(=O)[C@H](CCC(=O)O)NC(=O)[C@H](CC(=O)O)NC(=O)[C@@H](N)CC(N)=O)CSSC[C@H](NC(=O)[C@H](C)NC(=O)[C@H](C(C)C)NC(=O)[C@H](CC(N)=O)NC(=O)[C@H](C(C)C)NC2=O)C(=O)N[C@@H]([C@@H](C)O)C(=O)NCC(=O)N1)C(=O)O` [SP-304, Asn^1-Asp^2-Glu^3-Cys^4-Glu^5-Leu^6-Cys^7-Val^8-Asn^9-Val^10-Ala^11-Cys^12-Thr^13-Gly^14-Cys^15-Leu^16] (H-NDECELCVNVACTGCL-OH; disulfide 4-12, 7-15), for which, in series [1], the “activity after exposure to the acidic pH of the SGF” value is given as “unaltered” and the “biological activity after incubation with SGF (breakdown in SGF)” value is on record as “resistant to breakdown in SGF”. Further, the “major HPLC peak following incubation with SGF” value in series [2] is recorded as “did not change”. Also, in series [3], the “HPLC analysis after incubation with heat-inactivated SIF” value was “remained intact”. The “severe adverse events (SAEs)” value in series [4] (0.1 to 48.6 mg single oral dose) was “no severe adverse events”. In addition, the “tolerability of single oral dose” value in series [4] (0.1 to 48.6 mg) is “well-tolerated”.
